Reference: ChEMBL document CHEMBL4507291 (2021)

Tests used:
[1] = target: Gastrin/cholecystokinin type B receptor (Homo sapiens) (UniProt P32239); conditions: Compound concentration 10.0 uM
[2] = target: T1, cGMP-dependent protein kinase 1 (Homo sapiens) (UniProt Q13976); experiment: PRKG1 Kinase screen; conditions: Compound concentration 1.0 uM
T1 sequence (whole entry): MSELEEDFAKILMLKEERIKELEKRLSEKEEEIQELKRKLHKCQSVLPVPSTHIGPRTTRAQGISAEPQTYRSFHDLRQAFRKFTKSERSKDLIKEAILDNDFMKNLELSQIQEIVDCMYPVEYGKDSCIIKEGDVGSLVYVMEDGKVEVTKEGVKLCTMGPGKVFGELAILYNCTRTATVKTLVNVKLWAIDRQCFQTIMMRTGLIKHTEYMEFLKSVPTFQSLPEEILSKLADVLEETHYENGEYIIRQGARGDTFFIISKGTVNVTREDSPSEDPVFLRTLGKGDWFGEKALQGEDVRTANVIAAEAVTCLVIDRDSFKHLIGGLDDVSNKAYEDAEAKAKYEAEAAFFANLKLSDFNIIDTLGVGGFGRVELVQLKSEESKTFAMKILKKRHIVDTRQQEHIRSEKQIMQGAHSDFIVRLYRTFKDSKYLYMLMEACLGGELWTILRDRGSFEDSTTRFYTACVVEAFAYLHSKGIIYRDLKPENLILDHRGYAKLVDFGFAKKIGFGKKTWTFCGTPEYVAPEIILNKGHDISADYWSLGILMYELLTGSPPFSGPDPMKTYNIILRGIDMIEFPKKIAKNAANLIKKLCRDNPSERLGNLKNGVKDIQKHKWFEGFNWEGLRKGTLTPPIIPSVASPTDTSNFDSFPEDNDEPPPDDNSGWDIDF

[3] = target: D(1A) dopamine receptor (Homo sapiens) (UniProt P21728); conditions: Compound concentration 10.0 uM
[4] = target: Vasoactive intestinal polypeptide receptor 1 (Homo sapiens) (UniProt P32241); experiment: Inhibition of Vasoactive Intestinal Peptide VIP1 at 10 µM in the Eurofins-Panlabs radioligand binding assay (Eurofins_assay_287010); conditions: Compound concentration 10.0 uM
[5] = system: Mast/stem cell growth factor receptor Kit (Homo sapiens), P10721 [V654A]; experiment: KIT V654A Kinase screen; conditions: Compound concentration 1.0 uM
Chain of Mast/stem cell growth factor receptor Kit (Homo sapiens), P10721 [V654A] (P10721 whole entry V654A): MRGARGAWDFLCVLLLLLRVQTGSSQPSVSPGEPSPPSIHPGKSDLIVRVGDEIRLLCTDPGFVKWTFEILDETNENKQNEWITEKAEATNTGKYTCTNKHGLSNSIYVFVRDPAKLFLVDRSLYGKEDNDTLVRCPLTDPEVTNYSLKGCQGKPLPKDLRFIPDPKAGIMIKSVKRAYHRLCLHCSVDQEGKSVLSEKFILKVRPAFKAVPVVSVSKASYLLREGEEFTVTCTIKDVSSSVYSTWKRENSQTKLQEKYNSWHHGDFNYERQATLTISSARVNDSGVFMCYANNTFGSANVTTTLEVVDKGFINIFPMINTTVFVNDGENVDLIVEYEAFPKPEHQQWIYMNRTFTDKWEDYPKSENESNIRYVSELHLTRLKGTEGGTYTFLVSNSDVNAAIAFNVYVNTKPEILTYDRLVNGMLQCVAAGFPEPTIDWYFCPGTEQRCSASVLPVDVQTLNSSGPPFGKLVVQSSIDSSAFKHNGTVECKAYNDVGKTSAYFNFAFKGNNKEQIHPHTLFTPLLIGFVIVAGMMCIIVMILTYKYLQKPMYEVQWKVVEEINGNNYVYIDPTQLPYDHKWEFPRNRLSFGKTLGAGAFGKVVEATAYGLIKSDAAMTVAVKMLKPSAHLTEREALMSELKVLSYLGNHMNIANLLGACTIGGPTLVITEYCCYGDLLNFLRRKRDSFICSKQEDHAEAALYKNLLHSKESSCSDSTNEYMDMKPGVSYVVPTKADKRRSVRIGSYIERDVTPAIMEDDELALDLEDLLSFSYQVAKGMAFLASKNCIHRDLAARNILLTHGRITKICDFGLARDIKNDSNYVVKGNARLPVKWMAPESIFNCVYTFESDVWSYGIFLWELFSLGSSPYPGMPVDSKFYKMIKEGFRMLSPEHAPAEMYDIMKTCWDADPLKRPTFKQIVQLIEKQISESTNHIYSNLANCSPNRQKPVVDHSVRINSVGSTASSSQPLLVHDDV

[6] = system: Tyrosine-protein kinase JAK2 (Homo sapiens), O60674 [V617F]; experiment: JAK2 JH1 JH2 V617F Kinase screen; conditions: Compound concentration 1.0 uM
Chain of Tyrosine-protein kinase JAK2 (Homo sapiens), O60674 [V617F] (O60674 whole entry V617F): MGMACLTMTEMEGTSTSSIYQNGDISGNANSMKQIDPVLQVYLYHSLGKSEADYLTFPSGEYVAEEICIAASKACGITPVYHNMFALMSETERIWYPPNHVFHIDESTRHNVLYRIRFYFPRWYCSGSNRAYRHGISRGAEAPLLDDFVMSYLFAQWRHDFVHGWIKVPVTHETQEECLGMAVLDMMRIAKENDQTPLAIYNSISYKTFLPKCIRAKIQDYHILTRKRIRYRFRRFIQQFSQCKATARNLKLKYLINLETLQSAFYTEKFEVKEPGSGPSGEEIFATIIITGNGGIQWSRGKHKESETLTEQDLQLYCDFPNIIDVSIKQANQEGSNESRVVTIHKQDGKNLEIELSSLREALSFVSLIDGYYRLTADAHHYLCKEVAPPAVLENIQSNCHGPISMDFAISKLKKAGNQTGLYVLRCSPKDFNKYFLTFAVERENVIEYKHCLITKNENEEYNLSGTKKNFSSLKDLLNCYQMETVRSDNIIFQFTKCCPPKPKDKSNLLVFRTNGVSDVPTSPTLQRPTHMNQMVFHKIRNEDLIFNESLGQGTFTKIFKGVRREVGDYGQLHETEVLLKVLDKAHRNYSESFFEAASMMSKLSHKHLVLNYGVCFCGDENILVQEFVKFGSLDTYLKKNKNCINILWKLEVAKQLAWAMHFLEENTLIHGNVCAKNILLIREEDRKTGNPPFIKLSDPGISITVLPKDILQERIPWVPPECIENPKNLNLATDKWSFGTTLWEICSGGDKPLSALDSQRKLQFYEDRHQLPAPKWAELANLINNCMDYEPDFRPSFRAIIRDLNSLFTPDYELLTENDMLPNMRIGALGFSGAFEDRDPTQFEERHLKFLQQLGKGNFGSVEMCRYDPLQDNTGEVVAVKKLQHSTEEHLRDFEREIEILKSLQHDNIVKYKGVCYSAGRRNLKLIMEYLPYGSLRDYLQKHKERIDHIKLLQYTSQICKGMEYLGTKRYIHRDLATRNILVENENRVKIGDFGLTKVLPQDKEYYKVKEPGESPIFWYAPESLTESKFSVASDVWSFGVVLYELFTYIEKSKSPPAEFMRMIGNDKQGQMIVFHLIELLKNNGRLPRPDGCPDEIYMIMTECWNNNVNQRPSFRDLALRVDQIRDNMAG

[7] = target: Mitogen-activated protein kinase 3 (Homo sapiens) (UniProt P27361); experiment: MAPK3 (ERK1) Kinase screen; conditions: Compound concentration 1.0 uM
Chain of Mitogen-activated protein kinase 3 (Homo sapiens) (P27361 whole entry): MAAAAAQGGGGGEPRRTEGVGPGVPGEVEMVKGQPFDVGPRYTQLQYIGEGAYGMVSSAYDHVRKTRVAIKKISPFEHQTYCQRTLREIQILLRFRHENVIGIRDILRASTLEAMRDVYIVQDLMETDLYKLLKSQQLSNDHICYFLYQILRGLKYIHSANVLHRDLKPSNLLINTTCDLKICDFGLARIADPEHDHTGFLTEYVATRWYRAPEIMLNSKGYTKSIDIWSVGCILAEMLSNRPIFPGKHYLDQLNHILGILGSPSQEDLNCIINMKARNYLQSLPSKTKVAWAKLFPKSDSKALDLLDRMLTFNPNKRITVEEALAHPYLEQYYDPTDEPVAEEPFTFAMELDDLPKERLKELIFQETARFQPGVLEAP

[8] = target: Adenosine receptor A1 (Homo sapiens) (UniProt P30542); conditions: Compound concentration 10.0 uM
Chain of Adenosine receptor A1 (Homo sapiens) (P30542 whole entry, canonical isoform): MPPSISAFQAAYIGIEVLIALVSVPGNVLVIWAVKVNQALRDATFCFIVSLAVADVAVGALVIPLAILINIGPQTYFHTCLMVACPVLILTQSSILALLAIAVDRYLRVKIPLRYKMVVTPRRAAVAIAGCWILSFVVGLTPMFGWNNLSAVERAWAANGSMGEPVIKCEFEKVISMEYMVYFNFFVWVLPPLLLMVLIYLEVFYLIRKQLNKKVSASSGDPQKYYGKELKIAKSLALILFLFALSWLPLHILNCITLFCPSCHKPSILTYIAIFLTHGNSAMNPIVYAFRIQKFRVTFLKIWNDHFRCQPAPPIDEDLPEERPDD

[9] = target: Casein kinase I isoform gamma-1 (Homo sapiens) (UniProt Q9HCP0); experiment: CSNK1G1 (CK1 gamma 1) Kinase screen; conditions: Compound concentration 1.0 uM
Chain of Casein kinase I isoform gamma-1 (Homo sapiens) (Q9HCP0 whole entry, looked up, canonical isoform): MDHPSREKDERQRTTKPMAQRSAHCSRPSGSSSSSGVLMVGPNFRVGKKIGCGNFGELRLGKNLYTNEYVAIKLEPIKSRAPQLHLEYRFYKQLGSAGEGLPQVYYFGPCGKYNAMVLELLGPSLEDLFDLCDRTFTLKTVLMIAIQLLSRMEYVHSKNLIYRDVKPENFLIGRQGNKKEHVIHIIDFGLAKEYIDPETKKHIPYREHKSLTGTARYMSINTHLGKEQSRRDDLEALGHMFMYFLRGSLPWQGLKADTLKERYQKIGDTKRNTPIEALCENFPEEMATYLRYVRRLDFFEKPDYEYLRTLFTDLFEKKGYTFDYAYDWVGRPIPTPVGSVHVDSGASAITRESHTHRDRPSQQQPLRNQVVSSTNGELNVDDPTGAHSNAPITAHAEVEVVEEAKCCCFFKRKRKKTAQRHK

[10] = target: T2, 5-hydroxytryptamine receptor 3A (Homo sapiens) (UniProt P46098); experiment: Inhibition of Serotonin (5-Hydroxytryptamine) 5-HT3 at 10 µM in the Eurofins-Panlabs radioligand binding assay (Eurofins_assay_271910); set-up: ligand concentration 0.69 nM; conditions: Compound concentration 10.0 uM
T2 sequence (whole entry): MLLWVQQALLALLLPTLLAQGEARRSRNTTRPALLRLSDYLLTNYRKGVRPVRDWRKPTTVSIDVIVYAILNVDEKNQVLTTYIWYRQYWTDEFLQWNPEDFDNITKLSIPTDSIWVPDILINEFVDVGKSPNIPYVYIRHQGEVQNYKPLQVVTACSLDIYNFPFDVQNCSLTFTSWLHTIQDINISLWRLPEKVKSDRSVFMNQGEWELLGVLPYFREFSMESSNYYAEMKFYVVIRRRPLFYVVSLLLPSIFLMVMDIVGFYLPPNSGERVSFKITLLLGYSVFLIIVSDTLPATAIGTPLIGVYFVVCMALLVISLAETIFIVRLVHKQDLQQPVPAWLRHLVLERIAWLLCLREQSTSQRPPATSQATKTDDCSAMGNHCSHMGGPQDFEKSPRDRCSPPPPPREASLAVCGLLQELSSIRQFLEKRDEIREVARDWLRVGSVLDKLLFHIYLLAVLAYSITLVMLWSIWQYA

[11] = target: T3, cAMP-dependent protein kinase catalytic subunit PRKX (Homo sapiens) (UniProt P51817); experiment: PRKX Kinase screen; conditions: Compound concentration 1.0 uM
T3 sequence (whole entry): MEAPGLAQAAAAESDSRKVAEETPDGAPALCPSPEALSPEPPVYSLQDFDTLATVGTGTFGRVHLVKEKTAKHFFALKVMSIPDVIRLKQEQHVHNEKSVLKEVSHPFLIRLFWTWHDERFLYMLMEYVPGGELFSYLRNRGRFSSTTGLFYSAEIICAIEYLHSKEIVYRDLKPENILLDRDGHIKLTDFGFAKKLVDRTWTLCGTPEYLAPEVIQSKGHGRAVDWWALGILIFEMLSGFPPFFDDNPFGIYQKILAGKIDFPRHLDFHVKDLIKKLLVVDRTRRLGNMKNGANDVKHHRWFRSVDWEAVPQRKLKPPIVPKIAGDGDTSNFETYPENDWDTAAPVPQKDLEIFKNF

[12] = target: Platelet-derived growth factor receptor alpha (Homo sapiens) (UniProt P16234); experiment: PDGFRA (PDGFR alpha) Kinase screen; conditions: Compound concentration 1.0 uM
Chain of Platelet-derived growth factor receptor alpha (Homo sapiens) (P16234 whole entry): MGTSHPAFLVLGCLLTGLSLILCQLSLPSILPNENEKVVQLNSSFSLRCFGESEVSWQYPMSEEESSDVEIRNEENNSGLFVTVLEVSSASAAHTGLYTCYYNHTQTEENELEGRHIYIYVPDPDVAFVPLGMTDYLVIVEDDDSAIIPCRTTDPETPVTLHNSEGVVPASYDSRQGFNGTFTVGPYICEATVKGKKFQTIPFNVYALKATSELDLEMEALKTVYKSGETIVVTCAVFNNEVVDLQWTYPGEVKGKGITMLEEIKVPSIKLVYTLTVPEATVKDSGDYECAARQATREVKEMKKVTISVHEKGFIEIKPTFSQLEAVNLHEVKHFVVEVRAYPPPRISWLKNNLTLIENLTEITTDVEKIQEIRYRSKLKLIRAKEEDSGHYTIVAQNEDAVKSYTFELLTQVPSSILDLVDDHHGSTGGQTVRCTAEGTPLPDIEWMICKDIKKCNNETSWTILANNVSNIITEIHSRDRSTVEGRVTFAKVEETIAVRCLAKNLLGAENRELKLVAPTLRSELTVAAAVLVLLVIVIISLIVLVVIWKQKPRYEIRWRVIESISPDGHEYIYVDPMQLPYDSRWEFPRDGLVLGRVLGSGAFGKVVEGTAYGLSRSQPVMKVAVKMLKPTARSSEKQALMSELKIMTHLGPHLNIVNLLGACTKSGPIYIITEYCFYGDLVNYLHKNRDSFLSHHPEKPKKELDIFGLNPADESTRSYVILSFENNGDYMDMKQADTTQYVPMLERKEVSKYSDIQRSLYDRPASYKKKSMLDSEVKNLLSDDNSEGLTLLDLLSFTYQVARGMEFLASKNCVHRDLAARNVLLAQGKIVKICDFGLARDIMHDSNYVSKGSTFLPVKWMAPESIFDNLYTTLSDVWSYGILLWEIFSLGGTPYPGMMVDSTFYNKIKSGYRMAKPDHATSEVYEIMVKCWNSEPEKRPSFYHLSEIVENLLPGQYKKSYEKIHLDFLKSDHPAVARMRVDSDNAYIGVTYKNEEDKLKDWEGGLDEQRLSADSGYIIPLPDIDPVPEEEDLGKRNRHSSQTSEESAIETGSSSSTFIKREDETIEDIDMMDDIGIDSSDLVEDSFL

[13] = system: Tyrosine-protein kinase ABL1 (Homo sapiens), P00519 [T315I]; experiment: ABL1 T315I Kinase screen; conditions: Compound concentration 1.0 uM
[14] = target: Wee1-like protein kinase (Homo sapiens) (UniProt P30291); experiment: WEE1 Kinase screen; conditions: Compound concentration 1.0 uM
[15] = target: Tyrosine-protein kinase JAK2 (Homo sapiens) (UniProt O60674); experiment: JAK2 JH1 JH2 Kinase screen; conditions: Compound concentration 1.0 uM
[16] = target: Mitogen-activated protein kinase 14 (Homo sapiens) (UniProt Q16539); experiment: MAPK14 (p38 alpha) Kinase screen; conditions: Compound concentration 1.0 uM
Chain of Mitogen-activated protein kinase 14 (Homo sapiens) (Q16539 whole entry): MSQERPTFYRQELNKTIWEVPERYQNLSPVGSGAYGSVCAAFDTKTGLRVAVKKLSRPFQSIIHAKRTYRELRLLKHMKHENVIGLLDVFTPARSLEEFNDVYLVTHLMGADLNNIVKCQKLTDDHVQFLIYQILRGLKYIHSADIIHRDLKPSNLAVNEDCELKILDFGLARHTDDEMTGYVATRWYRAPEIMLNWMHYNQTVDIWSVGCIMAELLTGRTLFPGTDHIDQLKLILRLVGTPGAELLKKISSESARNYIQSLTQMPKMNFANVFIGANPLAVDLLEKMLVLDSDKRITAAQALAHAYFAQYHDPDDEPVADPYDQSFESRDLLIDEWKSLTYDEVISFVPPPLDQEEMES

[17] = target: Platelet-activating factor receptor (Homo sapiens) (UniProt P25105); experiment: Inhibition of Platelet Activating Factor (PAF) at 10 µM in the Eurofins-Panlabs radioligand binding assay (Eurofins_assay_265010); conditions: Compound concentration 10.0 uM
Chain of Platelet-activating factor receptor (Homo sapiens) (P25105 whole entry): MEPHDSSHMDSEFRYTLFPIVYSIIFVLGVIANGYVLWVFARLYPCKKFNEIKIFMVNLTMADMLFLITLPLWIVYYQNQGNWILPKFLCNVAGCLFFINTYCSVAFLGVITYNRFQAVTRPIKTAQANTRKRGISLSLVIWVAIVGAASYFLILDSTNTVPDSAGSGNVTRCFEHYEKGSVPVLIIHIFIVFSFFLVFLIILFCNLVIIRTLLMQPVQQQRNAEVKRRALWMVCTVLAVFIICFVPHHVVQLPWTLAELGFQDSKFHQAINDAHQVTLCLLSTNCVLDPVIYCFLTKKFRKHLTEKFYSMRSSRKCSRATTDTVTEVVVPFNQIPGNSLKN

Measured: inhibition

C[C@@H]1CN(c2cc(-c3n[nH]c4ccc(OC5(C)CC5)cc34)ncn2)C[C@H](C)O1 [MLi-2]
inactive: [1] 15% | [2] 0.194% | [3] 12% | [4] 3% | [5] 1.06% | [6] -7.77% | [7] 18.7% | [8] 29% | [9] -1.82% | [10] -9% | [11] 1.54% | [12] 0.395% | [13] 9.34% | [14] 3% | [15] -4.32% | [16] -6.52% | [17] 33%
